Columns and labels:
Type in all cases: in vivo
Setaria faberii = assay: Herbicidal action, monocotyledonous weeds, Setaria faberii (Table 2c); details: applied at 1-2 leaf stage, scoring 28 days after application
Description: (§1) The herbicidal efficacy of the active compounds or active compound mixtures was scored visually by comparing the treated pots (soil) with untreated controls. The damage and development of all above-ground plant parts was recorded. Scoring was done on a percentage scale (example values: 100% action=all plants dead or not emerged; 50% action=50% of the plants and green plant parts dead or not emerged; 0% action=no discernible action=like control plot). The score figures of in any case 2 repetitions (pots) were averaged.
(§2) Seeds or rhizome pieces of monocotyledonous and dicotyledonous weeds are placed in sandy loam in pots, covered with soil and grown in the greenhouse under good growth conditions (temperature, atmospheric humidity, water supply). […] The compositions according to the invention, formulated as wettable powders or emulsion concentrates, are sprayed onto the green plant parts in various dosages using an application rate of 300 to 800 L of water/ha (converted). After the test plants have remained in the greenhouse under optimum growth conditions for about 3 to 4 weeks, the effect of the preparations is scored visually in comparison with untreated controls (scoring as in Example 1). The compositions according to the invention also have good herbicidal post-emergence action against a broad spectrum of economically important weed grasses and broad-leaf weeds. […]

Bidens pinata = assay: Herbicidal action on Bidens pinata (Table 3)
Description: as §1
(§3) When applying the combinations according to the invention, herbicidal effects are frequently observed on a harmful plant species which exceed the formal total of the effects of the herbicides present when these are applied by themselves. Alternatively, it is observed in some cases that a lower application rate is required for the herbicide combination in order to achieve the same effect on a harmful plant species in comparison with the individual products. […] When the data observed already exceed the formal total of the data in the experiments with individual applications, they likewise exceed the expected value according to Colby, which is calculated using the formula below and is likewise regarded as an indication of synergism (cf. S. R. Colby; in Weeds 15 (1967) pp. 20 to 22): E=A+B−(A·B/100)

Euphorbia heterophylla = assay: Herbicidal action, dicotyledonous weeds, Euphorbia heterophylla (Table 2b); details: applied at 2-3 leaf stage, scoring 28 days after application
Description: as §1
(§4) Seeds or rhizome pieces of monocotyledonous and dicotyledonous weeds are placed in sandy loam in pots, covered with soil and grown in the greenhouse under good growth conditions (temperature, atmospheric humidity, water supply). Three weeks after sowing, the test plants are treated in the three-leaf stage with the compositions according to the invention. The compositions according to the invention, formulated as wettable powders or emulsion concentrates, are sprayed onto the green plant parts in various dosages using an application rate of 300 to 800 L of water/ha (converted). After the test plants have remained in the greenhouse under optimum growth conditions for about 3 to 4 weeks, the effect of the preparations is scored visually in comparison with untreated controls (scoring as in Example 1). […]

Setaria viridis = assay: Herbicidal action, monocotyledonous weeds, Setaria viridis (Table 2c); details: applied at 1-2 leaf stage, scoring 28 days after application
Description: as §1, §2

Cirsium Arvense = assay: Herbicidal action on Cirsium arvense (Table 2a)
Description: as §1, §3

Xanthium strumarium = assay: Herbicidal action, dicotyledonous weeds, Xanthium strumarium (Table 2b); details: applied at 2-3 leaf stage, scoring 28 days after application
Description: as §1, §4

Abutilon teophrastis = assay: Herbicidal action, dicotyledonous weeds, Abutilon teophrastis (Table 2b); details: applied at 2-3 leaf stage, scoring 28 days after application
Description: as §1, §4

Digitaria sanguinalis = assay: Herbicidal action on Digitaria sanguinalis (Table 1)
Description: as §1, §3

SMILES: CC(C)N.O=C(O)CNCP(=O)(O)O [Glyphosate-isopropylammonium (A1b), glyphosate-isopropylammonium]
- Herbicidal action [%] Setaria faberii (Setaria faberii; dose 100 g AS/ha): 10%
- Herbicidal action [%] Bidens pinata (Bidens pinata; dose 100 g AS/ha): 10%
- Herbicidal action [%] Euphorbia heterophylla (Euphorbia heterophylla; dose 100 g AS/ha): 10%
- Herbicidal action [%] Setaria viridis (Setaria viridis; dose 100 g AS/ha): 20%
- Herbicidal action [%] Cirsium Arvense (Cirsium Arvense; dose 675 g AS/ha): 25%
- Herbicidal action [%] Xanthium strumarium (Xanthium strumarium; dose 100 g AS/ha): 10%
- Herbicidal action [%] Abutilon teophrastis (Abutilon teophrastis; dose 100 g AS/ha): 10%

SMILES: CC(C)N(C)S(=O)(=O)NC(=O)c1cc(-n2c(=O)cc(C(F)(F)F)n(C)c2=O)c(F)cc1Cl [Compound of the formula (I) (amorphous), 2-chloro-5-[3,6-dihydro-3-methyl-2,6-dioxo-4-(trifluoromethyl)-1-(2H)-pyrimidinyl]-4-fluoro-N-[[methyl-(1-methylethyl)amino]sulfonyl]benzamide]
- Herbicidal action [%] on Digitaria sanguinalis (Digitaria sanguinalis; dose 25 g AS/ha): 0%
- Herbicidal action [%] Cirsium Arvense (Cirsium Arvense; dose 25 g AS/ha): 55%

SMILES: CP(=O)(O)CCC(N)C(=O)O (centres unmarked) [Glufosinate-ammonium (A2a), glufosinate-ammonium]
- Herbicidal action [%] on Digitaria sanguinalis (Digitaria sanguinalis; dose 450 g AS/ha): 15%

SMILES: COCc1cnc(C2=NC(C)(C(C)C)C(=O)N2)c(C(=O)O)c1 (centres unmarked) [Imazamox (C18), imazamox]
- Herbicidal action [%] Bidens pinata (Bidens pinata; dose 0.5 g AS/ha): 0%
- Herbicidal action [%] Bidens pinata (Bidens pinata; dose 0.5 g AS/ha, listed as imazamox (C18)): no herbicidal action

SMILES: CC(C)N(C)S(=O)(=O)NC(=O)c1cc(-n2c(=O)cc(C(F)(F)F)n(C)c2=O)c(F)cc1Cl [Hydrate of the compound of the formula (I) = (Ba)] [2-chloro-5-[3,6-dihydro-3-methyl-2,6-dioxo-4-(trifluoromethyl)-1-(2H)-pyrimidinyl]-4-fluoro-N-[[methyl-(1-methylethyl)amino]sulfonyl]benzamide]
- Herbicidal action [%] Setaria faberii (Setaria faberii; dose 6.25 g AS/ha): 30%
- Herbicidal action [%] on Digitaria sanguinalis (Digitaria sanguinalis; dose 25 g AS/ha): 0%
- Herbicidal action [%] Bidens pinata (Bidens pinata; dose 6.25 g AS/ha): 40%
- Herbicidal action [%] Euphorbia heterophylla (Euphorbia heterophylla; dose 6.25 g AS/ha): 30%
- Herbicidal action [%] Setaria viridis (Setaria viridis; dose 6.25 g AS/ha): 25%
- Herbicidal action [%] Cirsium Arvense (Cirsium Arvense; dose 25 g AS/ha): 45%
- Herbicidal action [%] Xanthium strumarium (Xanthium strumarium; dose 6.25 g AS/ha): 30%
- Herbicidal action [%] Abutilon teophrastis (Abutilon teophrastis; dose 6.25 g AS/ha): 75%

— US8716184B2, “Herbicidal composition comprising the hydrates of saflufenacil and glyphosate or glufosinate” (Bayer Cropscience AG, priority 2010, dated 2014)
